# Measurements: patent publication US8791108B2, “Inhibitors of human immunodeficiency virus replication” (priority 2011, dated 2014)
# Read-outs that look alike come from different tables or passages of the source.
# Tested on: recombinant NL-Rluc virus
# Assay: Inhibition of HIV replication (NL-RLuc luciferase reporter virus, MT-2 cells)
# Type: cell-based
# [1] = Human immunodeficiency virus 1, MT2, 120 h, read-out: Activity
# [2] = Human immunodeficiency virus 1, MT2, 120 h, read-out: EC50 μM
Compound,EC50 [1],EC50 [2],"EC50 (NL-RLuc virus in MT-2 cells, 5 days of incubation, luciferase readout, serum condition not given, read-out: Activity)"
"Cc1nc2cc(C(=O)NCCC3CCOCC3)nn2c(-c2cc(F)c3c(c2C)CCCO3)c1[C@H](OC(C)(C)C)C(=O)O [Example 129, (2S)-2-(tert-butoxy)-2-(7-(8-fluoro-5-methylchroman-6-yl)-5-methyl-2-((2-(tetrahydro-2H-pyran-4-yl)ethyl)carbamoyl)pyrazolo[1,5-a]pyrimidin-6-yl)acetic acid]",0.1 to 1 µM,,
Cc1nc2cc(C(=O)NCCC34C[C@H]5C[C@@H](C3)C[C@@H](C4)C5)nn2c(-c2cc(F)c3c(c2C)CCCO3)c1[C@H](OC(C)(C)C)C(=O)O [Example 130],< 0.1 µM,,
Cc1nc2cc(C(=O)NCCCC3CCCCC3)nn2c(-c2cc(F)c3c(c2C)CCCO3)c1[C@H](OC(C)(C)C)C(=O)O [Example 131],< 0.1 µM,,
"Cc1nc2cc(C(=O)NCCCC3CCOC3)nn2c(-c2cc(F)c3c(c2C)CCCO3)c1[C@H](OC(C)(C)C)C(=O)O (stereo partly drawn) [Example 132, (2S)-2-(tert-butoxy)-2-(7-(8-fluoro-5-methylchroman-6-yl)-5-methyl-2-((3-(tetrahydrofuran-3-yl)propyl)carbamoyl)pyrazolo[1,5-a]pyrimidin-6-yl)acetic acid]",0.1 to 1 µM,,
"CCCOCCNC(=O)c1cc2nc(C)c([C@H](OC(C)(C)C)C(=O)O)c(-c3cc(F)c4c(c3C)CCCO4)n2n1 [Example 133, (2S)-2-(tert-butoxy)-2-(7-(8-fluoro-5-methylchroman-6-yl)-5-methyl-2-((2-propoxyethyl)carbamoyl)pyrazolo[1,5-a]pyrimidin-6-yl)acetic acid]",0.1 to 1 µM,0.185 µM,
"Cc1nc2cc(C(=O)NCCC3(O)CCCC3)nn2c(-c2cc(F)c3c(c2C)CCCO3)c1[C@H](OC(C)(C)C)C(=O)O [Example 134, (2S)-2-(tert-butoxy)-2-(7-(8-fluoro-5-methylchroman-6-yl)-2-((2-(1-hydroxycyclopentyl)ethyl)carbamoyl)-5-methylpyrazolo[1,5-a]pyrimidin-6-yl)acetic acid]",> 1 µM,,
"Cc1nc2cc(C(=O)NCC34CC5C[C@H](C3)C(O)[C@H](C5)C4)nn2c(-c2cc(F)c3c(c2C)CCCO3)c1[C@H](OC(C)(C)C)C(=O)O (stereo partly drawn) [Example 135, (2S)-2-(tert-butoxy)-2-(7-(8-fluoro-5-methylchroman-6-yl)-2-((((1R,3R,4S,5R,7S)-4-hydroxyadamantan-1-yl)methyl)carbamoyl)-5-methylpyrazolo[1,5-a]pyrimidin-6-yl)acetic acid]",,,0.1 to 1 µM
"Cc1nc2cc(C(=O)NCCSC(C)(C)C)nn2c(-c2cc(F)c3c(c2C)CCCO3)c1[C@H](OC(C)(C)C)C(=O)O [Example 136, (2S)-2-(tert-butoxy)-2-(2-((2-(tert-butylthio)ethyl)carbamoyl)-7-(8-fluoro-5-methylchroman-6-yl)-5-methylpyrazolo[1,5-a]pyrimidin-6-yl)acetic acid]",< 0.1 µM,,
"CNC(=O)c1cc2nc(C)c([C@H](OC(C)(C)C)C(=O)O)c(-c3cc(F)c4c(c3C)CCCO4)n2n1 [Example 137, (2S)-2-(tert-butoxy)-2-(7-(8-fluoro-5-methylchroman-6-yl)-5-methyl-2-(methylcarbamoyl)pyrazolo[1,5-a]pyrimidin-6-yl)acetic acid]",> 1 µM,,
"Cc1cc(CNC(=O)c2nn3c(-c4cc(F)c5c(c4C)CCCO5)c([C@H](OC(C)(C)C)C(=O)O)c(C)nc3c2F)ccc1F [Example 139, (2S)-2-(tert-Butoxy)-2-(3-fluoro-2-((4-fluoro-3-methylbenzyl)carbamoyl)-7-(8-fluoro-5-methylchroman-6-yl)-5-methylpyrazolo[1,5-a]pyrimidin-6-yl)acetic acid]",< 0.1 µM,,
"Cc1cc(CNC(=O)c2nn3c(-c4cc(F)c5c(c4C)CCCO5)c([C@H](OC(C)(C)C)C(=O)O)c(C)nc3c2Cl)ccc1F [Example 140, (2S)-2-(tert-Butoxy)-2-(3-chloro-2-((4-fluoro-3-methylbenzyl)carbamoyl)-7-(8-fluoro-5-methylchroman-6-yl)-5-methylpyrazolo[1,5-a]pyrimidin-6-yl)acetic acid]",< 0.1 µM,,
"Cc1cc(CNC(=O)c2cc3nc(C)c([C@H](OC(C)(C)C)C(=O)O)c(-c4ccc5c(c4Cl)NCCO5)n3n2)ccc1F [Example 141, (2S)-2-(tert-Butoxy)-2-(7-(5-chloro-3,4-dihydro-2H-benzo[b][1,4]oxazin-6-yl)-2-((4-fluoro-3-methylbenzyl)carbamoyl)-5-methylpyrazolo[1,5-a]pyrimidin-6-yl)acetic acid]",0.1 to 1 µM,0.114 µM,
"CCCCCc1ccccc1CNC(=O)c1cc2nc(C)c([C@H](OC(C)(C)C)C(=O)O)c(-c3ccc4c(c3Cl)NCCO4)n2n1 [Example 142, (2S)-2-(tert-Butoxy)-2-(7-(5-chloro-3,4-dihydro-2H-benzo[b][1,4]oxazin-6-yl)-5-methyl-2-((2-pentylbenzyl)carbamoyl)pyrazolo[1,5-a]pyrimidin-6-yl)acetic acid]",< 0.1 µM,,
"CCCCOc1cc(F)ccc1CNC(=O)c1cc2nc(C)c([C@H](OC(C)(C)C)C(=O)O)c(-c3ccc4c(c3Cl)NCCO4)n2n1 [Example 143, (2S)-2-(tert-Butoxy)-2-(2-((2-butoxy-4-fluorobenzyl)carbamoyl)-7-(5-chloro-3,4-dihydro-2H-benzo[b][1,4]oxazin-6-yl)-5-methylpyrazolo[1,5-a]pyrimidin-6-yl)acetic acid]",< 0.1 µM,0.028 µM,
"Cc1nc2cc(C(=O)NCCC(C)(C)C)nn2c(-c2ccc3c(c2Cl)NCCO3)c1[C@H](OC(C)(C)C)C(=O)O [Example 144, (2S)-2-(tert-Butoxy)-2-(7-(5-chloro-3,4-dihydro-2H-benzo[b][1,4]oxazin-6-yl)-2-((3,3-dimethylbutyl)carbamoyl)-5-methylpyrazolo[1,5-a]pyrimidin-6-yl)acetic acid]",0.1 to 1 µM,0.122 µM,
"Cc1cc(CNC(=O)c2cc3nc(C)c([C@H](OC(C)(C)C)C(=O)O)c(-c4cc5c(cc4F)OCCN5)n3n2)ccc1F [Example 145, (2S)-2-(tert-Butoxy)-2-(7-(7-fluoro-3,4-dihydro-2H-benzo[b][1,4]oxazin-6-yl)-2-((4-fluoro-3-methylbenzyl)carbamoyl)-5-methylpyrazolo[1,5-a]pyrimidin-6-yl)acetic acid]",< 0.1 µM,,
"Cc1nc2cc(C(=O)NCCC(C)(C)C)nn2c(-c2cc3c(cc2F)OCCN3)c1[C@H](OC(C)(C)C)C(=O)O [Example 146, (2S)-2-(tert-Butoxy)-2-(2-((3,3-dimethylbutyl)carbamoyl)-7-(7-fluoro-3,4-dihydro-2H-benzo[b][1,4]oxazin-6-yl)-5-methylpyrazolo[1,5-a]pyrimidin-6-yl)acetic acid]",< 0.1 µM,,
"Cc1cc(CNC(=O)c2cc3nc(C)c([C@H](OC(C)(C)C)C(=O)O)c(C4=CCC(C)(C)CC4)n3n2)ccc1F [Example 147, (S)-2-(tert-butoxy)-2-(7-(4,4-dimethylcyclohex-1-en-1-yl)-2-((4-fluoro-3-methylbenzyl)carbamoyl)-5-methylpyrazolo[1,5-a]pyrimidin-6-yl)acetic acid]",< 0.1 µM,,
"Cc1nc2cc(C(=O)NCCC(C)(C)C)nn2c(C2=CCC(C)(C)CC2)c1[C@H](OC(C)(C)C)C(=O)O [Example 148, (S)-2-(tert-Butoxy)-2-(2-((3,3-dimethylbutyl)carbamoyl)-7-(4,4-dimethylcyclohex-1-en-1-yl)-5-methylpyrazolo[1,5-a]pyrimidin-6-yl)acetic acid]",< 0.1 µM,,
